Laboratory results: article PMC10022894, “Plant and prokaryotic TIR domains generate distinct cyclic ADPR NADase products” (Science Advances, 2023)

Columns and labels:
Type in all cases: biochemical
BdTIR = target: T1, BdTIR (Brachypodium distachyon, UniProt I1GTC2); experiment: in vitro NADase assay on bead-bound protein, LC-MS; conditions: […] NAD+, ~[…] C, […] h
T1 construct: gene BRADI_1g24377v3; TIR-only protein; N-terminal Strep II and C-terminal 6xHis tags (pET30a+), E. coli BL21(DE3); catalytic E127
T1 sequence (I1GTC2 1-224): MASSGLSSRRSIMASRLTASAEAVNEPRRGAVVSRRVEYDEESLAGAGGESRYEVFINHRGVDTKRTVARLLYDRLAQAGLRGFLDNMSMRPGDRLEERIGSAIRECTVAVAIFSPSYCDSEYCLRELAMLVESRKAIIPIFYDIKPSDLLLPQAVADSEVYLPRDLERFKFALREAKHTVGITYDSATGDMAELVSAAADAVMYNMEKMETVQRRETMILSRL

AbTIR = target: T2, AbTIR (Acinetobacter baumannii, UniProt A0A009IHW8); experiment: in vitro NADase assay on bead-bound protein, LC-MS; conditions: […] NAD+, ~[…] C, […] h
T2 construct: gene J512_3302; core TIR domain, residues 157-292; N-terminal Strep II and C-terminal 6xHis tags (pET30a+), E. coli BL21(DE3); catalytic E208
T2 sequence (A0A009IHW8 134-269): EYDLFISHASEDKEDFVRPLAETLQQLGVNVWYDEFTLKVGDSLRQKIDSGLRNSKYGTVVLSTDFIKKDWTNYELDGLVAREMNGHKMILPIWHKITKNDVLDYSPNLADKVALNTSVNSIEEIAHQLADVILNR

ThsA = target: T3, ThsA (Bacillus cereus, UniProt J8G6Z1); experiment: in vitro NAD+ consumption; conditions: stimulated by NADase products of ThsB-Auto
T3 construct: SIR2-type NADase with C-terminal SLOG domain; in vitro preparation not described in main text
T3 sequence (J8G6Z1 whole entry, the tested form may be a part): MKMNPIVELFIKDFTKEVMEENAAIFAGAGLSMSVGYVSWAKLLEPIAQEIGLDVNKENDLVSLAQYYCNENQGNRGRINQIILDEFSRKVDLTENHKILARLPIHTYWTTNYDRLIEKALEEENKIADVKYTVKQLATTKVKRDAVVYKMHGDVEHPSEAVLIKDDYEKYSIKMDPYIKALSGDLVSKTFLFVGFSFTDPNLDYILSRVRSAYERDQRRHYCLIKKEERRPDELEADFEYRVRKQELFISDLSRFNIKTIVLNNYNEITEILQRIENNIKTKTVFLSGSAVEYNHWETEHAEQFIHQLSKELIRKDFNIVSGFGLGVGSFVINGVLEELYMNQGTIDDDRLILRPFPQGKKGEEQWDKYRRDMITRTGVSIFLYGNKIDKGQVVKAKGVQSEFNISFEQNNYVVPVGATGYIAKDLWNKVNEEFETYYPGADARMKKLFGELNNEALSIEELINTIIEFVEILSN

HopAM1 = target: T4, HopAM1 (Pseudomonas syringae group genomosp. 3, UniProt Q877R9); experiment: in vitro NADase assay on bead-bound protein, LC-MS; conditions: […] NAD+, ~[…] C, […] h
T4 construct: gene hopAM1-1; TIR effector; N-terminal Strep II and C-terminal 6xHis tags (pET30a+), E. coli BL21(DE3)
T4 sequence (Q877R9 whole entry): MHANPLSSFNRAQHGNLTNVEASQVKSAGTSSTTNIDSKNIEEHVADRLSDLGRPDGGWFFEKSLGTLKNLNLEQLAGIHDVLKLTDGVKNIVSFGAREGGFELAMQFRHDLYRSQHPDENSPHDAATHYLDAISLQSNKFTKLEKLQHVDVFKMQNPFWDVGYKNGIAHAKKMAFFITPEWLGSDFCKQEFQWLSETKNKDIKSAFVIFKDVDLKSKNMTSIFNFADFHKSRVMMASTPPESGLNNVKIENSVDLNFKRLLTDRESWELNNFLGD

NC(=O)c1ccc[n+]([C@@H]2O[C@H](COP(=O)(O)OP(=O)(O)OC[C@H]3O[C@@H](n4cnc5c(N)ncnc54)[C@H](O)[C@@H]3O)[C@@H](O)[C@H]2O)c1 [NAD^+]
in vitro NADase assay on bead-bound protein, LC-MS (BdTIR): we compared the in vitro NADase products of ThsB-Auto, BdTIR, AbTIR, and HopAM1 | in vitro NADase assay on bead-bound protein, LC-MS (AbTIR): we compared the in vitro NADase products of ThsB-Auto, BdTIR, AbTIR, and HopAM1 | in vitro NAD+ consumption (ThsA): NADase products of ThsB-Auto could stimulate NAD^+ consumption by ThsA in vitro | in vitro NADase assay on bead-bound protein, LC-MS (HopAM1): we compared the in vitro NADase products of ThsB-Auto, BdTIR, AbTIR, and HopAM1
